Patent US20180311194A1, “APPLICATION OF TRANILAST IN PREPARATION OF DRUG TREATING SCLEREDEMA DIABETICORUM” (THE FIRST AFFILIATED HOSPITAL OF NANJING MEDICAL UNIVERSITY, priority 2016, published 2018)

Experiments:
type I collagen mRNA = conditions: human dermal fibroblasts; cited from earlier work
fibroblast = experiment: Secretion and synthesis of mucin by fibroblast; type: cell-based; conditions: initially found
[1] = tested on: IgE antibody-induced cutaneous anaphylaxis; conditions: rats; cited from earlier work
[2] = tested on: patients with scleredema diabeticorum; experiment: Clinical oral treatment of patients with scleredema diabeticorum, skin thickness by B-ultrasound; type: in vivo, human; conditions: for skin thickness measured by B-ultrasound: back skin
Source text: FIG. 1 is a B-ultrasonography of a patient before medication (a and b are different parts of the affected skin).
1. Mode of administration: oral, tranilast 0.1 g, 3 times a day, every 3 months for a course of treatment, a total of two courses.

experimental asthma = conditions: rats; cited from earlier work
[3] = 3 patients, tranilast capsule 0.1, 3 times a day orally, after 3 months
[4] = patients with scleredema diabeticorum, after 3 months of application

COc1ccc(/C=C/C(=O)Nc2ccccc2C(=O)O)cc1OC [tranilast]
TGF-β-induced upregulation of type I collagen mRNA expression and basal level of type I collagen mRNA (type I collagen mRNA): able to suppress | secretion and synthesis of mucin by fibroblast (fibroblast): inhibiting | effect on IgE antibody-induced cutaneous anaphylaxis [1]: significant inhibitory effect | local skin erythema [2, 3]: subsided significantly | uncomfortable symptom of conscious hardening [2, 3]: significantly relieved | therapeutic effect on scleredema diabeticorum ([2]; clinical results): good therapeutic effect | skin thickness measured by B-ultrasound ([2]; patient Example 1, person, after 3 months of oral administration, before 6.5 mm): 6 mm | skin thickness measured by B-ultrasound ([2]; patient Example 2, person, 0.1 three times a day, after 3 months, before 8 mm): 6 mm | skin thickness measured by B-ultrasound ([2]; patient Example 3, person, 0.1 three times a day, after 3 months, before 8.5 mm): 5.9 mm | thickness of the surrounding skin (B-ultrasonography) ([2]; patient, after 3 months of medication, before medication 3.6 mm): 3.0 mm | thickness of the thickest part of skin on the right side (back of the neck, B-ultrasonography) ([2]; patient, after 3 months of medication, before medication about 7.5 mm): about 6.3 mm | thickness of the thickest part of the skin on the left side (back of the neck, B-ultrasonography) ([2]; patient, after 3 months of medication, before medication about 8.7 mm): about 6.8 mm | reduction of maximum skin thickness (B-ultrasound) ([2]; patient, after 3 months of treatment, before treatment 7.8 to 8.7 mm): 2 mm | adverse reactions [2, 4]: no significant adverse reactions were observed | symptoms in clinical practice [2, 4]: significantly relieved | thickness of the skin detected by B-ultrasound [2, 4]: significantly thinner | skin change in further treated cases ([2]; several further cases): skin thinning | blood routine examination, routine urine examination, and biochemical detection ([2]; tranilast capsule 0.1, 3 times a day orally, 3 months): no obvious abnormalities | effect on experimental asthma (experimental asthma): significant inhibitory effect
